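Five concentrations, 48 hours, 96-well plates. TGI is the concentration that stops growth completely.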
What was measured:
Assay in all cases: NCI tumour cell line growth inhibition, 48 h
[1] = tested on: SR leukemia
[2] = tested on: A549 NSCLC
[3] = tested on: OVCAR-8 ovarian
[4] = tested on: UACC-257 melanoma
[5] = tested on: SK-MEL-28 melanoma
[6] = tested on: M14 melanoma
[7] = tested on: HCT-15 colon
[8] = tested on: SNB-19 CNS
[9] = tested on: M19-MEL melanoma
[10] = tested on: HCT-116 colon
[11] = tested on: HOP-62 NSCLC
[12] = tested on: LXFL 529 NSCLC
[13] = tested on: NCI-H23 lung
[14] = tested on: UACC-62 melanoma
[15] = tested on: SNB-78 CNS
[16] = tested on: UO-31 renal
[17] = tested on: HL-60(TB) leukemia
[18] = tested on: SF-539 CNS
[19] = tested on: K-562 leukemia
[20] = tested on: SK-MEL-5 melanoma
[21] = tested on: KM20L2 colon
[22] = tested on: HCC-2998 colon
[23] = tested on: RPMI-8226 leukemia
[24] = tested on: LOX IMVI melanoma
[25] = tested on: OVCAR-4 ovarian
[26] = tested on: TK-10 renal
[27] = tested on: DLD-1 colon
[28] = tested on: NCI-H460 lung
[29] = tested on: COLO 205 colon
[30] = tested on: HT29 colon
[31] = tested on: OVCAR-5 ovarian
[32] = tested on: EKVX NSCLC
[33] = tested on: IGROV1 ovarian
[34] = tested on: DMS 273 small cell lung
[35] = tested on: SW-620 colon
[36] = tested on: XF 498 CNS
[37] = tested on: MOLT-4 leukemia
[38] = tested on: 786-0 renal
[39] = tested on: NCI-H226 lung
[40] = tested on: DMS 114 small cell lung
[41] = tested on: SN12C renal
[42] = tested on: SF-268 CNS
[43] = tested on: CCRF-CEM leukemia
[44] = tested on: U251 CNS
[45] = tested on: SNB-75 CNS
[46] = tested on: SK-OV-3 ovarian
[47] = tested on: RXF 393 renal
[48] = tested on: MALME-3M melanoma
[49] = tested on: KM12 colon
[50] = tested on: ACHN renal
[51] = tested on: HOP-92 NSCLC
[52] = tested on: SF-295 CNS
[53] = tested on: HOP-18 NSCLC
[54] = tested on: NCI-H522 lung
[55] = tested on: SK-MEL-2 melanoma
[56] = tested on: CAKI-1 renal

`CCN(CC)CC(=O)NC1c2ccccc2Oc2ccccc21` was tested. Which TGI [1] did it give?
The TGI was over 100 µM.

What about the TGI [2] of the same molecule?
Its TGI is over 100 µM.

What about the TGI [3] of the same molecule?
The TGI was over 100 µM.

What about the TGI [4] of the same molecule?
Its TGI is over 100 µM.

And the TGI [5]?
Its TGI is over 100 µM.

And the TGI [6]?
The TGI was over 100 µM.

And the TGI [7]?
Its TGI is over 100 µM.

What about the TGI [8] of the same molecule?
The TGI was over 100 µM.

And the TGI [9]?
The TGI was over 100 µM.

And the TGI [10]?
The TGI was over 100 µM.

And the TGI [11]?
The TGI was over 100 µM.

What about the TGI [12] of the same molecule?
Its TGI is over 100 µM.

And the TGI [13]?
Its TGI is over 100 µM.

And the TGI [14]?
The TGI was over 100 µM.

What about the TGI [15] of the same molecule?
The TGI was over 100 µM.

And the TGI [16]?
The TGI was over 100 µM.

What about the TGI [17] of the same molecule?
Its TGI is over 100 µM.

What about the TGI [18] of the same molecule?
The TGI was over 100 µM.

And the TGI [19]?
The TGI was over 100 µM.

And the TGI [20]?
Its TGI is over 100 µM.

And the TGI [21]?
Its TGI is over 100 µM.

And the TGI [22]?
The TGI was over 100 µM.

And the TGI [23]?
Its TGI is over 100 µM.

What about the TGI [24] of the same molecule?
Its TGI is over 100 µM.

And the TGI [25]?
Its TGI is over 100 µM.

What about the TGI [26] of the same molecule?
Its TGI is over 100 µM.

What about the TGI [27] of the same molecule?
Its TGI is over 100 µM.

And the TGI [28]?
Its TGI is over 100 µM.

And the TGI [29]?
The TGI was over 100 µM.

What about the TGI [30] of the same molecule?
The TGI was over 100 µM.

And the TGI [31]?
The TGI was over 100 µM.

And the TGI [32]?
Its TGI is over 100 µM.

What about the TGI [33] of the same molecule?
The TGI was over 100 µM.

What about the TGI [34] of the same molecule?
The TGI was over 100 µM.

What about the TGI [35] of the same molecule?
The TGI was over 100 µM.

What about the TGI [36] of the same molecule?
The TGI was over 100 µM.

And the TGI [37]?
Its TGI is over 100 µM.

And the TGI [38]?
Its TGI is over 100 µM.

What about the TGI [39] of the same molecule?
Its TGI is over 100 µM.

What about the TGI [40] of the same molecule?
Its TGI is over 100 µM.

What about the TGI [41] of the same molecule?
The TGI was over 100 µM.

What about the TGI [42] of the same molecule?
The TGI was over 100 µM.

And the TGI [43]?
The TGI was over 100 µM.

And the TGI [44]?
The TGI was over 100 µM.

And the TGI [45]?
Its TGI is over 100 µM.

And the TGI [46]?
Its TGI is over 100 µM.

And the TGI [47]?
The TGI was over 100 µM.

Which results are given for `C=C(Br)C(C)(Cl)CCC(Br)C(C)(C)Br` (stereo unspecified)?
TGI [1]: 51.9 µM; TGI [2]: > 100 µM; TGI [3]: > 100 µM; TGI [48]: > 100 µM; TGI [4]: > 100 µM; TGI [6]: > 100 µM; TGI [7]: > 100 µM; TGI [9]: > 100 µM; TGI [10]: > 100 µM; TGI [11]: > 100 µM; TGI [12]: > 100 µM; TGI [13]: > 100 µM; TGI [49]: > 100 µM; TGI [14]: > 100 µM; TGI [15]: > 100 µM; TGI [50]: > 100 µM; TGI [16]: > 100 µM; TGI [17]: 54.5 µM; TGI [18]: > 100 µM; TGI [19]: 80.9 µM; TGI [20]: > 100 µM; TGI [23]: 67 µM; TGI [24]: 50.5 µM; TGI [25]: > 100 µM; TGI [26]: > 100 µM; TGI [27]: > 100 µM; TGI [28]: > 100 µM; TGI [29]: > 100 µM; TGI [30]: > 100 µM; TGI [31]: > 100 µM; TGI [51]: > 100 µM; TGI [52]: > 100 µM; TGI [53]: > 100 µM; TGI [33]: > 100 µM; TGI [34]: > 100 µM; TGI [35]: > 100 µM; TGI [37]: 83.1 µM; TGI [38]: > 100 µM; TGI [54]: > 100 µM; TGI [39]: > 100 µM; TGI [40]: 76 µM; TGI [41]: > 100 µM; TGI [55]: 80.4 µM; TGI [43]: 59.6 µM; TGI [56]: > 100 µM; TGI [44]: > 100 µM; TGI [45]: > 100 µM; TGI [46]: > 100 µM; TGI [47]: > 100 µM

From PubChem BioAssay (NCI)
